Results reported in US6589566B2, “Composition comprising theanine” (priority 1998, dated 2003).

Experiments:
[1] = tested on: mice; format: in vivo; details: oral administration of 2 g/kg
Source text: Theanine, formulated in the theanine-containing composition of the present invention, is a glutamic acid derivative contained in tea-leaves, which is the main component of deliciousness (umami) of tea. It is also used as a food additive for seasoning. […] As described above, the theanine is an extremely safe substance.

[2] = tested on: male and female subjects; assay: Test Example 4: anxiety group after coffee extract beverage containing L-theanine; format: in vivo, humans; details: 10 times per day for one month, 7 subjects
Experimental: Each of male and female subjects consisting of a total of 7 members was given a beverage prepared by dissolving the L-theanine obtained in Examples 1 and 2 at amounts of 0 mg, 60 mg, 300 mg or 1200 mg in 100 g of coffee extract in boiling water (equivalent to about 1 mg/kg, about 5 mg/kg, and about […], respectively) 10 times per day for one month.

[3] = tested on: women complaining of premenstrual syndrome symptoms; assay: Test Example 5: premenstrual syndrome questionnaire, powdered L-theanine; format: in vivo, humans; details: 20 women, 50 mg powdered L-theanine per day during corpus lutea stage
Experimental: A test for assessing the premenstrual syndrome-suppressive effect of the inventive product was performed in 20 women complaining of 5 or more premenstrual syndrome symptoms. The inventive product used herein was powdered L-theanine as prepared in Example 1. Each subject was requested to measure their basal body temperature upon awaking for 2 months. […] During the test period, physical symptoms, mental symptoms and social symptoms were recorded in detail everyday. On the first day of the third menstruation, the test was terminated and a questionnaire survey was conducted. Questionnaire Survey Concerning Premenstrual Syndrome of Test Example 5 1. Were PMS symptoms suppressed ? 1) having remarkable effects; 2) having some effects; 3) having slight effects; 4) none. 2. For those selected 1), 2) or 3) in 1., were there any improvements in the daily life ? […] 3. For those selected 1), 2) or 3) in 1., please give specifics: […]

[4] = tested on: ICR male mice; assay: Example 11: amount of spontaneous exercise, rotatable cage; format: in vivo; details: oral 10 ml of 1% by weight aqueous solution per 1 kg body weight, versus non-administered group
Experimental: Ten ICR male mice were each orally administered with 10 ml of a 1% by weight theanine aqueous solution, per 1 kg of body weight, and the mice were allowed to stand in an inhalation box. The administered group of mice were compared with the 10 non-administered group of mice, wherein the amount of excercise was evaluated by counting the number of rotations of the rotatable cage for 60 minutes.

[5] = Theanine content 60 mg in 100 g coffee extract
[6] = Theanine content 300 mg in 100 g coffee extract
[7] = Theanine content 1200 mg in 100 g coffee extract

Compound: CCNC(=O)CC[C@H](N)C(=O)O [L-theanine]
- dead cases in acute toxicity test [1]: no dead cases
- High-Anxiety Group (number of subjects) [2, 5]: 2
- Low-Anxiety Group (number of subjects) [2, 5]: 2
- Moderate-Anxiety Group (number of subjects) [2, 5]: 3
- High-Anxiety Group (number of subjects) [2, 6]: 0
- Low-Anxiety Group (number of subjects) [2, 6]: 0
- Moderate-Anxiety Group (number of subjects) [2, 6]: 1
- High-Anxiety Group (number of subjects) [2, 7]: 0
- Low-Anxiety Group (number of subjects) [2, 7]: 7
- Moderate-Anxiety Group (number of subjects) [2, 7]: 0
- Were PMS symptoms suppressed? 4) none [3]: 0 subjects (0%).
- amount of exercise (number of rotations of the rotatable cage for 60 minutes) [4]: significant decrease
